Data set [1] can be described thus: Hepatocyte stability assay, human. The data set is classed as in vitro ADME. The following applies: human hepatocytes, 1 μM. On the procedure: BioreclamationIVT (Baltimore, MD) provided the cryopreserved hepatocytes, hepatocyte thawing (HT) medium, and Krebs-Henseleit buffer (KHB) medium. The stock solution concentration was 1 M in DMSO and was then diluted further in acetonitrile/water (1:1 v/v). All other chemicals were purchased from Sigma-Aldrich (St. Louis, MO) or Thermo Fisher Scientific (Waltham, MA).
The quench solution used to stop reactions in the hepatocyte incubations was comprised of 100% (v/v) acetonitrile. Internal Standard/Quench (IS/Q) solution used to stop reactions with the positive control also contained 200 nM Labetalol.
Metabolic Stability in Cryopreserved Hepatocytes: Test compounds, or the positive control metabolic substrate, was incubated in suspensions of cryopreserved hepatocytes at a final concentration of 1 μM. Vials containing cryopreserved hepatocytes were removed from liquid nitrogen and immediately immersed in a 37° C. water bath. The vials were swirled gently until the contents had thawed. They were then immediately emptied into 48 mL of pre-warmed thawing medium in a 50 mL conical tube. Cells remaining in the vial were re-suspended with 1.0 mL of pre-warmed thawing medium and added to the conical tube. The tube was capped and then gently inverted several times to re-suspend the hepatocytes. The cell suspension was centrifuged at 500×g for 10 minutes at room temperature and the supernatant discarded. The cell pellet was loosened by gently swirling the centrifuge tube. Non-supplemented KHB medium was added to obtain the appropriate target cell density. The viabilities of all cell preparations were ≥85%, assessed by Trypan blue dye exclusion.
For incubations, aliquots of hepatocyte suspension (250 μL containing a cell concentration of 2×10^6 cells/mL) were added to 250 μL of 2 μM substrate (test compound or positive control) in supplemented KHB in duplicate wells in a 24-well plate. Final concentration in the incubations were 1×10^6 cells/mL and 1 μM substrate. A cell-free control incubation (KHB only) was also included. The incubations were carried out with gentle shaking in a 37° C. incubator under a humid atmosphere of 95% air/5% CO2 (v/v). Aliquots (100 μL) were removed after 0, 1, 3, and 6 hours and added to 200 μL quenching solution. The samples were then placed on a shaker for 10 min followed by centrifugation at 3000×g for 20 min. The supernatant was transferred to a new plate and diluted with 100 μL of water to reduce the organic content and then placed on a shaker for 10 mins. Samples were injected and analyzed with methods described below.
Liquid Chromatography: Quantification of positive control and test compound was performed by analyte/internal standard peak area ratios (PAR) measured on a Thermo Scientific™ Q Exactive™ Hybrid Quadrupole-Orbitrap Mass Spectrometer MS/MS with an electrospray interface operating in positive ion mode. The mass spectrometer was coupled to a Dionex Ultimate® 3000 HPLC system. Samples (10 μL aliquots) were injected with a Leap Technologies HTC PAL autosampler. For positive control, the column used was a Thermo Scientific™ Hypersil GOLD™ HPLC column ([…], 50×2.1 mm). Mobile phase A consisted of 95% (v/v) water, 5% (v/v) acetonitrile, and contained 0.1% (v/v) formic acid (FA). Mobile phase B consisted of 95% (v/v) acetonitrile, 5% (v/v) water, and contained 0.1% (v/v) FA. Elution was achieved, at a flow rate of 0.5 mL/min, by a series of linear gradients: initial condition was 5% B at 0 min, isocratic for 20 seconds; then linear gradient to 95% B over 90 seconds, followed by isocratic for 60 seconds at 95% B, and re-equilibrated to initial conditions over 70 seconds.
Metabolic stabilities of positive control and test compound were determined by measuring the rates of disappearance of the parent with time by determining the % of parent remaining at time t (Ct) {Obach 1997}.
Data (% of parent remaining) were plotted on a semi-log scale and fitted using an exponential fit: […]

The nature of data set [2]: PBS solubility (kinetic solubility from DMSO stocks). To be noted: 22 °C, aqueous buffer, kinetic from dmso stock; 1x PBS pH 7.4, 1.0% DMSO, 24-hour incubation at ambient temperature. The data set is classed as physicochemical. In outline:
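Kinetic solubility in 1× PBS pH 7.4 with 1.0% final DMSO, maximum theoretical concentration 100 μM from 10 mM stock. After 24 h at ambient temperature (20.8-24.0 °C) the samples were vacuum-filtered and filtrates quantified by nitrogen detection against a calibration curve. Values were background-corrected and reported in μM and μg/mL.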

For data set [3], the system named is HCT116 MTAP-deleted cell lines. The data set is described as follows: Cell viability assay (CellTiter-Glo, 7 days), HCT116 MTAP-deleted. The data set is classed as cell-based. To be noted: for Selectivity: HCT116 WT CC50 versus HCT116 MTAP^del CC50; for plasma-adjusted CC50 (paCC50): paCC50 = CC50-HCT116-MTAP^del * (% free CCM/% free human plasma); for CC50: Homo sapiens, HCT116 MTAP-deleted. In outline:
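First, compounds are serially diluted in DMSO and dispensed into plates, which are frozen until seeding. Next, cells are added and incubated 7 days at 37 °C, 5% CO2, 90% humidity. Finally, CellTiter-Glo reagent is added and luminescence is measured to derive CC50.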
In general terms: ATP-based viability assays read luminescence as a measure of living cells.

[4] abbreviates: HCT-116, 168 h, 7 days of treatment, CTG, read-out: CC50-HCT116-MTAP^del.
The mark [5] stands for this setting: HCT-116, cell viability assay, class symbols, read-out: CC50.
[6] abbreviates: HCT-116, cell viability, class symbols, read-out: CC50.

In brackets after ≈: the same amount, converted by molar mass. Like-named read-outs stand apart in the source and are kept apart here.

Turning to `Nc1nc2cnc(C(=O)N3CC[C@H]4C[C@@H]3c3ccc(C(F)(F)F)c(F)c3O4)cc2n2cncc12` [Ff-684, (4-aminoimidazo[1,5-a]pyrido[3,4-e]pyrazin-8-yl)((2S,6R)-10-fluoro-9-(trifluoromethyl)-3,4-dihydro-2H-2,6-methanobenzo[b][1,5]oxazocin-5(6H)-yl)methanone], the “Human Predicted Hepatocyte CL” value in data set [1] is 2.67 mL/min/kg. The same molecule displayed a solubility at 24 h in data set [2] of 28.4 µM (≈ 13.4 µg/mL). Besides, in data set [3], the Selectivity was determined as 93. This molecule showed a plasma-adjusted CC50 (paCC50) in data set [3] (HCT-116) of 465 nM. The values for the half-maximal cytotoxic concentration (CC50) in data set [3] (setting [4]) and in data set [3] (setting [5]) were 14 nM and less than 100 nM, respectively.
Turning to `Nc1nc2cnc(C(=O)N3CCC[C@@H]4Oc5cc(C(F)(F)F)ccc5[C@@H]43)cc2n2cncc12` [Ff-110, (4-aminoimidazo[1,5-a]pyrido[3,4-e]pyrazin-8-yl)((4aS,9bS)-7-(trifluoromethyl)-3,4,4a,9b-tetrahydrobenzofuro[3,2-b]pyridin-1(2H)-yl)methanone], the “Human Predicted Hepatocyte CL” value in data set [1] was 3.67 mL/min/kg. This molecule also showed a solubility at 24 h in data set [2] of 1.7 µM (≈ 0.773 µg/mL). The molecule also displayed a Selectivity in data set [3] of 86. In data set [3] (HCT-116), the plasma-adjusted CC50 (paCC50) was determined as 100 nM. The 50% cytotoxic concentration (CC50) is 6 nM in data set [3] (setting [4]) and less than 100 nM in data set [3] (setting [6]).
As to `Nc1nc2cc(F)c(C(=O)N3CCO[C@@H]4Cc5cc(C(F)(F)F)ccc5[C@@H]43)cc2n2cncc12` (single isomer, unassigned) [Ff-82], in data set [1], the “Human Predicted Hepatocyte CL” value is 4.33 mL/min/kg. The molecule also came in with a solubility at 24 h in data set [2] of 17.9 µM (≈ 8.44 µg/mL). In data set [3], this molecule yielded a Selectivity of 77. Further, the plasma-adjusted CC50 (paCC50) in data set [3] (HCT-116) turned out to be 408 nM. For the same molecule, the 50% cytotoxic concentration (CC50) is 27 nM in data set [3] (setting [4]) and less than 100 nM in data set [3] (setting [6]).
On to `Nc1nc2cnc(C(=O)N3CC4(CC4)C[C@@H]4Oc5cc(C(F)(F)F)ccc5[C@@H]43)cc2n2cncc12` [Ff-648, (4-aminoimidazo[1,5-a]pyrido[3,4-e]pyrazin-8-yl)((4aS,9bS)-7-(trifluoromethyl)-4a,9b-dihydro-2H-spiro[benzofuro[3,2-b]pyridine-3,1′-cyclopropan]-1(4H)-yl)methanone], for which the “Human Predicted Hepatocyte CL” value in data set [1] was 5.67 mL/min/kg. Moreover, the solubility at 24 h in data set [2] was found to be 5.1 µM (≈ 2.45 µg/mL). In addition, in data set [3], the Selectivity was 72. This molecule also yielded a plasma-adjusted CC50 (paCC50) in data set [3] (HCT-116) of 262 nM. Moreover, the cytotoxic concentration (CC50) in data set [3] (setting [4]) was 9 nM; in data set [3] (setting [5]), less than 100 nM.
With `C[C@@H]1CN(C(=O)c2cc3c(cc2F)nc(N)c2cncn23)[C@H]2c3cc(F)c(OC(F)(F)F)cc3C[C@H]2O1` (single isomer, unassigned) [Ff-197], in data set [1], the “Human Predicted Hepatocyte CL” value is 4.17 mL/min/kg. Also, the solubility at 24 h in data set [2] was less than 1 µM. The molecule also returned a Selectivity in data set [3] of 47. The molecule also showed a plasma-adjusted CC50 (paCC50) in data set [3] (HCT-116) of 217 nM. Also, the values for the CC50 in data set [3] (setting [4]) and in data set [3] (setting [6]) were 15 nM and less than 100 nM, respectively.
Consider `Nc1nc2cnc(C(=O)N3CCC[C@@H]4Oc5c(ccc(C(F)(F)F)c5F)[C@@H]43)cc2n2cncc12` [Ff-109, (4-aminoimidazo[1,5-a]pyrido[3,4-e]pyrazin-8-yl)((4aS,9bS)-6-fluoro-7-(trifluoromethyl)-3,4,4a,9b-tetrahydrobenzofuro[3,2-b]pyridin-1(2H)-yl)methanone], for which the “Human Predicted Hepatocyte CL” value in data set [1] was 2.33 mL/min/kg. The same molecule registered a solubility at 24 h in data set [2] of 2.3 µM (≈ 1.09 µg/mL). In data set [3], this molecule had a Selectivity of 92. The same molecule returned a plasma-adjusted CC50 (paCC50) in data set [3] (HCT-116) of 276 nM. The CC50 in data set [3] (setting [4]) is 15 nM; in data set [3] (setting [6]), less than 100 nM.
On to `[2H]C1([2H])CC[C@@H]2Oc3cc(C(F)(F)F)ccc3[C@@H]2N1C(=O)c1cc2c(cn1)nc(N)c1cncn12` [Fg-60, (4-aminoimidazo[1,5-a]pyrido[3,4-e]pyrazin-8-yl)((4aS,9bS)-7-(trifluoromethyl)-3,4,4a,9b-tetrahydrobenzofuro[3,2-b]pyridin-1(2H)-yl-2,2-d2)methanone], for which, in data set [1], the “Human Predicted Hepatocyte CL” value was 3.5 mL/min/kg. Also, the Selectivity in data set [3] is on record as 98. Moreover, the CC50 in data set [3] (setting [4]) was 7 nM; in data set [3] (setting [5]) it was less than 100 nM.

Broadly, the solubility is the concentration that dissolves in the medium under given conditions. Broadly, the CC50 is the concentration at which the toxic effect on the cells reaches its halfway point.

Source of the values: US12448388B2, “PRMT5 inhibitors and uses thereof” (Gilead Sciences, Inc., priority 2023, dated 2025).
